pIC50: −log10 of the molar value. Structures can show the parent of a compound that is named as a salt.

31 molecules from US20150031668A1, “CHROMAN DERIVATIVES AS TRPM8 INHIBITORS” (AMGEN INC., priority 2013, published 2015) can be followed below.

This experiment deals with T1, human TRPM8 (Homo sapiens, UniProt Q7Z2W7).
T1 construct: expressed in transfected cells; host or cells: Chinese hamster ovary (CHO) cells, T-REx tetracycline-inducible expression system (Invitrogen); co-transfected with pcDNA3.1 aequorin
T1 sequence (Q7Z2W7 whole entry): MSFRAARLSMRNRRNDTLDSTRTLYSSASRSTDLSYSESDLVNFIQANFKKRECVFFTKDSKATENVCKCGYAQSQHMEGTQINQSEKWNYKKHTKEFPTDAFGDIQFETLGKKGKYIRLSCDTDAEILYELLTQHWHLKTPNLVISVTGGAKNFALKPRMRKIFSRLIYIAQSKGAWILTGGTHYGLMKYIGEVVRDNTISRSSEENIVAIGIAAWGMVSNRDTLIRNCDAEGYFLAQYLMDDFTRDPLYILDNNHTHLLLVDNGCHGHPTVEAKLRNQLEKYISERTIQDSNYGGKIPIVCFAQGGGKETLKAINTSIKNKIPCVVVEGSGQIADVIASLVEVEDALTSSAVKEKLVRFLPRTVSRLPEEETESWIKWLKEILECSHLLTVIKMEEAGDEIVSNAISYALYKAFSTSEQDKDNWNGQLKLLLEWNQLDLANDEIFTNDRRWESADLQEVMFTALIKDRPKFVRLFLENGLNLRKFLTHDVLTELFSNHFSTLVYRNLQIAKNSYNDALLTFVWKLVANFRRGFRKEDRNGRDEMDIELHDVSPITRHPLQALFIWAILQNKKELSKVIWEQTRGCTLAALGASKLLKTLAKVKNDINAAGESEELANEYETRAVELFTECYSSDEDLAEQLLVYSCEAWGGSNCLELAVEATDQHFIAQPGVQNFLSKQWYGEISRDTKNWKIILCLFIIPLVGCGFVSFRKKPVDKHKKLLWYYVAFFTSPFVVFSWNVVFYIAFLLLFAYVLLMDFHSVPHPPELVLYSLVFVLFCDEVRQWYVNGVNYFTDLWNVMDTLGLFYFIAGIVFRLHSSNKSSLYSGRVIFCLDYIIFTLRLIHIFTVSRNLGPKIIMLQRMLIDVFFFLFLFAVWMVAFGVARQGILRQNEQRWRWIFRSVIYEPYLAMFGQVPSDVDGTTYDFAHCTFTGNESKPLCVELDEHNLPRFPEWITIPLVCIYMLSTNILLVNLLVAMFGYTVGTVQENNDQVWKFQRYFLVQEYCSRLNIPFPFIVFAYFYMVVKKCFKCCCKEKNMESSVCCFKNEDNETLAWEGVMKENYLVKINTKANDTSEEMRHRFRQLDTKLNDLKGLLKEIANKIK
Nature of the experiment: Luminescence readout assay for measuring intracellular calcium (aequorin, CHO cells expressing human TRPM8; icilin, L-menthol or cold activation). The experiment is classed as cell-based. The following applies: CHO cells expressing human TRPM8, icilin activation (1 μM), aequorin luminescence; read-out: hTRPM8 IC50. In outline:
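Activation was by 1 μM icilin, 100 μM L-menthol (test compound 2.5 min ahead) or cold buffer below 10° C (compound 1 min ahead). Calcium rise measured as aequorin luminescence in CHO cells with tetracycline-inducible human TRPM8.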
(A change in cytosolic calcium serves as a functional read-out for many receptors and channels.)
As for `COC(=O)c1ccn(CC(=O)N[C@]2(c3ccc(OC(F)(F)F)c(F)c3)CCOc3cccnc32)c1` [Example 193, (S)-melhyl 1-(2-((4-(3-fluoro-4-(trifluoromethoxy)phenyl)-3,4-dihydro-2H-pyrano[3,2-b]pyridin-4-yl)amino)-2-oxoethyl)-1H-pyrrole-3-carboxylate], the pIC50 is 6.23. To `O=C(O)c1ccc(C(=O)N[C@]2(c3ccc(OC(F)(F)F)c(F)c3)CCOc3cccnc32)[nH]1` [Example 306, (S)-5-((4-(3-fluoro-4-(trifluoromethoxy)phenyl)-3,4-dihydro-2H-pyrano[3,2-b]pyridin-4-yl)carbamoyl)-1H-pyrrole-2-carboxylic acid] belongs 6.80; to `O=C(N[C@]1(c2ccc(OC(F)(F)F)c(F)c2)CCOc2cccnc21)c1ncco1` [Example 189, (S)-N-(4-(3-fluoro-4-(trifluoromethoxy)phenyl)-3,4-dihydro-2H-pyrano[3,2-b]pyridin-4-yl) oxazole-2-carboxamide], 6.87; to `COC(=O)c1cccc(S(=O)(=O)N[C@]2(c3ccc(OC(F)(F)F)c(F)c3)CCOc3cccnc32)c1` [Example 285, (S)-methyl 3-(N-(4-(3-fluoro-4-(trifluoromethoxy)phenyl)-3,4-dihydro-2H-pyrano[3,2-b]pyridin-4-yl)sulfamoyl)benzoate], 6.75. In the case of `O=C(N[C@]1(c2ccc(OC(F)(F)F)c(F)c2)CCOc2cccnc21)N1CCC(F)(F)CC1` [Example 100] it was 6.73; in that of `O=C(N[C@]1(c2ccc(-c3ccccc3O)cc2)CCOc2cccnc21)c1ccc(F)cc1` [Example 120, (S)-4-fluoro-N-(4-(2′-hydroxy-[1,1′-biphenyl]-4-yl)-3,4-dihydro-2H-pyrano[3,2-b]pyridin-4-yl)benzamide], 6.28; in that of `O=C(NC1(c2ccc(C(F)(F)F)cc2)CCOc2cccnc21)c1ccc2c(c1)CNC2=O` (stereo not shown) [Example 80, 1-oxo-N-(4-(4-(trifluoromethyl)phenyl)-3,4-dihydro-2H-pyrano[3,2-b]pyridin-4-yl)isoindoline-5-carboxamide], 7.68. To `O=C(N[C@]1(c2ccc(F)cc2)CCOc2cccnc21)c1ccccc1` (single isomer, unassigned) [Example 16] belongs 6.45; to `COc1ncccc1-c1ccc([C@@]2(NC(=O)c3ccc(F)cc3)CCOc3cccnc32)cc1` [Example 131, (S)-4-fluoro-N-(4-(4-(2-methoxypyridin-3-yl)phenyl)-3,4-dihydro-2H-pyrano[3,2-b]pyridin-4-yl)benzamide], 6.95. For `Cn1ccc2cc(C(=O)N[C@]3(c4ccc(OC(F)(F)F)cc4)CCOc4cccnc43)ccc21` [Example 258, (S)-1-methyl-N-(4-(4-(trifluoromethoxy)phenyl)-3,4-dihydro-2H-pyrano[3,2-b]pyridin-4-yl)-1H-indole-5-carboxamide formate], the pIC50 was 7.47.

`CC1(C)COC(c2ccc(C(=O)N[C@]3(c4ccc(OC(F)(F)F)c(F)c4)CCOc4cccnc43)cc2)=N1` [Example 168, (S)-4-(4,4-dimethyl-4,5-dihydrooxazol-2-yl)-N-(4-(3-fluoro-4-(trifluoromethoxy)phenyl)-3,4-dihydro-2H-pyrano[3,2-b]pyridin-4-yl)benzamide]: the pIC50 is 6.84. In the case of `O=C(N[C@]1(c2ccc(OC(F)(F)F)cc2)CCOc2cccnc21)c1ccnc2[nH]ccc12` [Example 218, (S)-N-(4-(4-(trifluoromethoxy)phenyl)-3,4-dihydro-2H-pyrano[3,2-b]pyridin-4-yl)-1H-pyrrolo[2,3-b] pyridine-4-carboxamide formate] it was 8.00. For the molecule `O=C(O)c1cccc(C(=O)N[C@]2(c3ccc(OC(F)(F)F)c(F)c3)CCOc3cccnc32)c1` [Example 178, (S)-3-((4-(3-fluoro-4-(trifluoromethoxy)phenyl)-3,4-dihydro-2H-pyrano[3,2-b]pyridin-4-yl)carbamoyl) benzoic acid], the pIC50 is 7.14. In the case of `O=C(N[C@]1(c2cccc(OC(F)(F)F)c2)CCOc2cccnc21)c1ccccc1` (single isomer, unassigned) [Example 17] it was 7.22. In the case of `O=C(N[C@]1(c2ccc(-c3ccccc3)cc2)CCOc2cccnc21)c1ccc(F)cc1` [Example 113, (S)—N-(4-([1,1′-biphenyl]-4-yl)-3,4-dihydro-2H-pyrano[3,2-b]pyridin-4-yl)-4-fluorobenzamide] it was 7.28; in that of `Cn1cncc1C(=O)N[C@]1(c2ccc(OC(F)(F)F)c(F)c2)CCOc2cccnc21` [Example 163, (S)—N-(4-(3-fluoro-4-(trifluoromethoxy)phenyl)-3,4-dihydro-2H-pyrano[3,2-b]pyridin-4-yl)-1-methyl-1H-imidazole-5-carboxamide 2,2,2-trifluoroacetate], 6.99; in that of `COC(=O)c1ccc(C(=O)N[C@]2(c3ccc(OC(F)(F)F)c(F)c3)CCOc3cccnc32)n1C` [Example 305, (S)-methyl 5-((4-(3-fluoro-4-(trifluoromethoxy)phenyl)-3,4-dihydro-2H-pyrano[3,2-b]pyridin-4-yl)carbamoyl)-1-methyl-1H-pyrrole-2-carboxylate], 7.82. Consider `O=C(N[C@]1(c2ccc(OC(F)(F)F)cc2)CCOc2cccnc21)c1ccc2nccn2c1` [Example 240, (S)-N-(4-(4-(trifluoromethoxy)phenyl)-3,4-dihydro-2H-pyrano[3,2-b]pyridin-4-yl)imidazo[1,2-a] pyridine-6-carboxamide formate], for which the pIC50 was 7.39.

Consider `CS(=O)(=O)c1ccccc1-c1ccc([C@@]2(NC(=O)c3ccc(F)cc3)CCOc3cccnc32)cc1` [Example 144, (S)-4-fluoro-N-(4-(2′-(methylsulfonyl)-[1,1′-biphenyl]-4-yl)-3,4-dihydro-2H-pyrano[3,2-b]pyridin-4-yl)benzamide], for which the pIC50 was 5.72.

As to `O=C(Nc1cccnc1Br)N[C@]1(c2ccc(OC(F)(F)F)c(F)c2)CCOc2cccnc21` [Example 93, (S)-1-(2-bromopyridin-3-yl)-3-(4-(3-fluoro-4-(trifluoromethoxy)phenyl)-3,4-dihydro-2H-pyrano[3,2-b]pyridin-4-yl)urea], the pIC50 is 7.66.

`O=C(N[C@]1(c2ccc(OC(F)(F)F)cc2)CCOc2cccnc21)c1cccs1` [Example 229, (S)-N-(4-(4-(trifluoromethoxy)phenyl)-3,4-dihydro-2H-pyrano[3,2-b]pyridin-4-yl)thiophene-2-carboxamide fomiate]: the pIC50 is 6.84.

As to `O=C(O)c1ccc(C(=O)N[C@@]2(c3ccc(OC(F)(F)F)c(F)c3)COc3cccnc32)nc1` [Example 161, (R)-6-((3-(3-Fluoro-4-(trifluoromethoxy)phenyl)-2,3-dihydrofuro[3,2-b]pyridin-3-yl)carbamoyl)nicotinic acid], the pIC50 is 7.38. To `O=S(=O)(N[C@]1(c2ccc(OC(F)(F)F)c(F)c2)CCOc2cccnc21)c1ccccc1` [Example 76, (S)—N-(4-(3-fluoro-4-(trifluoromethoxy)phenyl)-3,4-dihydro-2H-pyrano[3,2-b]pyridin-4-yl)benzenesulfonamide 2,2,2-trifluoroacetate] belongs 6.69; to `COC(=O)c1cc2ccc(C(=O)N[C@]3(c4ccc(OC(F)(F)F)c(F)c4)CCOc4cccnc43)cc2[nH]1` [Example 209, (S)-methyl 6-((4-(3-fluoro-4-(trifluoromethoxy)phenyl)-3,4-dihydro-2H-pyrano[3,2-b]pyridin-4-yl)carbamoyl)-1H-indole-2-carboxylate], 7.35; to `COc1ccncc1-c1ccc([C@@]2(NC(=O)c3ccc(F)cc3)CCOc3cccnc32)cc1` [Example 130, (S)-4-fluoro-N-(4-(4-(4-methoxypyridin-3-yl)phenyl)-3,4-dihydro-2H-pyrano[3,2-b]pyridin-4-yl)benzamide], 6.00. To `O=C(N[C@]1(c2ccc(OC(F)(F)F)c(F)c2)CCOc2cccnc21)c1ccc(F)cn1` [Example 55, (S)-5-fluoro-N-(4-(3-fluoro-4-(trifluoromethoxy)phenyl)-3,4-dihydro-2H-pyrano[3,2-b]pyridin-4-yl)picolinamide] belongs 7.66; to `COc1ncc(-c2ccc([C@@]3(NC(=O)c4ccc(F)cc4)CCOc4cccnc43)cc2)c(OC)n1` [Example 149, (S)-N-(4-(4-(2,4-dimethoxypyrimidin-5-yl)phenyl)-3,4-dihydro-2H-pyrano[3,2-b]pyridin-4-yl)-4-fluorobenzamide], 6.52. To `O=C(N[C@]1(c2ccc(OC(F)(F)F)cc2)CCOc2cccnc21)c1csc2ccccc12` [Example 268, (S)-N-(4-(4-(trifluoromethoxy)phenyl)-3,4-dihydro-2H-pyrano[3,2-b]pyridin-4-yl) benzo[b]thiophene-3-carboxamide formate] belongs 7.15. With `COC(=O)c1ccc(C(=O)N[C@]2(c3ccc(Cl)c(Cl)c3)CCOc3cccnc32)nc1` [Example 183, (S)-methyl 6-((4-(3,4-dichlorophenyl)-3,4-dihydro-2H-pyrano[3,2-b]pyridin-4-yl)carbamoyl) nicotinate], the pIC50 was 7.68. In the case of `COC(=O)c1ccc(C(=O)N[C@]2(c3ccc(C(F)(F)F)c(F)c3)CCOc3cccnc32)nc1` [Example 172, (S)-methyl 6-((4-(3-fluoro-4-(trifluoromethyl)phenyl)-3,4-dihydro-2H-pyrano[3,2-b]pyridin-4-yl)carbamoyl) nicotinate] it was 7.66; in that of `Cn1c(C(=O)O)ccc1C(=O)N[C@]1(c2ccc(OC(F)(F)F)c(F)c2)CCOc2cccnc21` [Example 324, (S)-5-((4-(3-fluoro-4-(trifluoro-methoxy)phenyl)-3,4-dihydro-2H-pyrano[3,2-b]pyridin-4-yl)carbamoyl)-1-methyl-1H-pyrrole-2-carboxylic acid], 6.99.

The pIC50 is the negative decadic logarithm of the IC50, by convention in mol/L.
